Legend:
Experiment in all cases: relative viability (nuclei count vs DMSO), 5 days (fraction); higher = more cells survive
201T = system: 201T
How it was run: (§1)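 Dosing by pin tool came one day after lung cancer cell lines were seeded in 1536-well plates, using either one drug or a fixed anchor-drug dose plus five library-drug doses (not always all listed) in √10 steps. After 5 days, nuclei were counted on 4× images. Relative viability is treated-well nuclei count divided by vehicle-well nuclei count, and values are medians of duplicate plates.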

ABC-1 = system: ABC-1
How it was run: as §1

CAL-12T = system: CAL-12T
How it was run: as §1

COR-L23 = system: COR-L23
How it was run: as §1

HCC-44 = system: HCC-44
How it was run: as §1

HOP-62 = system: HOP-62
How it was run: as §1

LC-2-ad = system: LC-2-ad
How it was run: as §1

LCLC-103H = system: LCLC-103H
How it was run: as §1

NCI-H1355 = system: NCI-H1355
How it was run: as §1

NCI-H1395 = system: NCI-H1395
How it was run: as §1

NCI-H1651 = system: NCI-H1651
How it was run: as §1

NCI-H1666 = system: NCI-H1666
How it was run: as §1

NCI-H1993 = system: NCI-H1993
How it was run: as §1

NCI-H2085 = system: NCI-H2085
How it was run: as §1

NCI-H2170 = system: NCI-H2170
How it was run: as §1

NCI-H2228 = system: NCI-H2228
How it was run: as §1

NCI-H2347 = system: NCI-H2347
How it was run: as §1

NCI-H23 = system: NCI-H23
How it was run: as §1

NCI-H322M = system: NCI-H322M
How it was run: as §1

NCI-H520 = system: NCI-H520
How it was run: as §1

NCI-H647 = system: NCI-H647
How it was run: as §1

NCI-H661 = system: NCI-H661
How it was run: as §1

NCI-H838 = system: NCI-H838
How it was run: as §1

O=C(O)CCCCC(CCSCc1ccccc1)SCc1ccccc1 (stereo not given) [CPI-613] + CS(=O)(=O)N1CCN(Cc2cc3nc(-c4cccc5[nH]ncc45)nc(N4CCOCC4)c3s2)CC1 [Pictilisib] (partner 1 µM) showed a relative viability (201T; first compound 5 µM) of 0.722, a relative viability (201T; first compound 15.81 µM) of 0.654 and a relative viability (201T; first compound 50 µM) of 0.667. For the same compound, the relative viability (201T; first compound 158.11 µM) was 0.665, the relative viability (201T; first compound 500 µM) was 0.647 and the relative viability (ABC-1; first compound 5 µM) was 0.771. For the same compound, the relative viability (ABC-1; first compound 15.81 µM) was 0.68, the relative viability (ABC-1; first compound 50 µM) was 0.807 and the relative viability (ABC-1; first compound 158.11 µM) was 0.384. The relative viability (ABC-1; first compound 500 µM) was 0.246, the relative viability (CAL-12T; first compound 5 µM) was 0.255 and the relative viability (CAL-12T; first compound 15.81 µM) was 0.393. The relative viability (CAL-12T; first compound 50 µM) was 0.453, the relative viability (CAL-12T; first compound 158.11 µM) was 0.385 and the relative viability (CAL-12T; first compound 500 µM) was 0.102. It also gave a relative viability (COR-L23; first compound 5 µM) of 0.639, a relative viability (COR-L23; first compound 15.81 µM) of 0.689 and a relative viability (COR-L23; first compound 50 µM) of 0.621. The relative viability (COR-L23; first compound 158.11 µM) was 0.393, the relative viability (COR-L23; first compound 500 µM) was 0.007 and the relative viability (HCC-44; first compound 5 µM) was 0.546. It also gave a relative viability (HCC-44; first compound 15.81 µM) of 0.611, a relative viability (HCC-44; first compound 50 µM) of 0.589 and a relative viability (HCC-44; first compound 158.11 µM) of 0.469. The relative viability (HCC-44; first compound 500 µM) was 0.0534, the relative viability (HOP-62; first compound 5 µM) was 0.526 and the relative viability (HOP-62; first compound 15.81 µM) was 0.7. For the same compound, the relative viability (HOP-62; first compound 50 µM) was 0.704, the relative viability (HOP-62; first compound 158.11 µM) was 0.496 and the relative viability (HOP-62; first compound 500 µM) was 0.0332. It also gave a relative viability (LC-2-ad; first compound 5 µM) of 0.455, a relative viability (LC-2-ad; first compound 15.81 µM) of 0.427 and a relative viability (LC-2-ad; first compound 50 µM) of 0.473. It also gave a relative viability (LC-2-ad; first compound 158.11 µM) of 0.211, a relative viability (LC-2-ad; first compound 500 µM) of 0.0075 and a relative viability (LCLC-103H; first compound 5 µM) of 0.55. The relative viability (LCLC-103H; first compound 15.81 µM) was 0.578, the relative viability (LCLC-103H; first compound 50 µM) was 0.581 and the relative viability (LCLC-103H; first compound 158.11 µM) was 0.539. It also gave a relative viability (LCLC-103H; first compound 500 µM) of 0.653, a relative viability (NCI-H1355; first compound 5 µM) of 0.417 and a relative viability (NCI-H1355; first compound 15.81 µM) of 0.389. The relative viability (NCI-H1355; first compound 50 µM) was 0.374, the relative viability (NCI-H1355; first compound 158.11 µM) was 0.29 and the relative viability (NCI-H1355; first compound 500 µM) was 0.0921. It also gave a relative viability (NCI-H1395; first compound 5 µM) of 0.623, a relative viability (NCI-H1395; first compound 15.81 µM) of 0.782 and a relative viability (NCI-H1395; first compound 50 µM) of 0.619. It also gave a relative viability (NCI-H1395; first compound 158.11 µM) of 0.645, a relative viability (NCI-H1395; first compound 500 µM) of 0.51 and a relative viability (NCI-H1651; first compound 5 µM) of 0.591. The relative viability (NCI-H1651; first compound 15.81 µM) was 0.504, the relative viability (NCI-H1651; first compound 50 µM) was 0.572 and the relative viability (NCI-H1651; first compound 158.11 µM) was 0.331. For the same compound, the relative viability (NCI-H1651; first compound 500 µM) was 0.0986, the relative viability (NCI-H1666; first compound 5 µM) was 0.512 and the relative viability (NCI-H1666; first compound 15.81 µM) was 0.351. For the same compound, the relative viability (NCI-H1666; first compound 50 µM) was 0.404, the relative viability (NCI-H1666; first compound 158.11 µM) was 0.15 and the relative viability (NCI-H1666; first compound 500 µM) was 0.0576. The relative viability (NCI-H1993; first compound 5 µM) was 0.762, the relative viability (NCI-H1993; first compound 15.81 µM) was 0.698 and the relative viability (NCI-H1993; first compound 50 µM) was 0.715. The relative viability (NCI-H1993; first compound 158.11 µM) was 0.648, the relative viability (NCI-H1993; first compound 500 µM) was 0.496 and the relative viability (NCI-H2085; first compound 5 µM) was 0.505. It also gave a relative viability (NCI-H2085; first compound 15.81 µM) of 0.492, a relative viability (NCI-H2085; first compound 50 µM) of 0.4 and a relative viability (NCI-H2085; first compound 158.11 µM) of 0.383. For the same compound, the relative viability (NCI-H2085; first compound 500 µM) was 0.343, the relative viability (NCI-H2170; first compound 5 µM) was 0.293 and the relative viability (NCI-H2170; first compound 15.81 µM) was 0.307. It also gave a relative viability (NCI-H2170; first compound 50 µM) of 0.256, a relative viability (NCI-H2170; first compound 158.11 µM) of 0.293 and a relative viability (NCI-H2170; first compound 500 µM) of 0.0903. For the same compound, the relative viability (NCI-H2228; first compound 5 µM) was 0.429, the relative viability (NCI-H2228; first compound 15.81 µM) was 0.382 and the relative viability (NCI-H2228; first compound 50 µM) was 0.596. The relative viability (NCI-H2228; first compound 158.11 µM) was 0.374, the relative viability (NCI-H2228; first compound 500 µM) was 0.0181 and the relative viability (NCI-H2347; first compound 5 µM) was 0.524. For the same compound, the relative viability (NCI-H2347; first compound 15.81 µM) was 0.397, the relative viability (NCI-H2347; first compound 50 µM) was 0.705 and the relative viability (NCI-H2347; first compound 158.11 µM) was 0.144. The relative viability (NCI-H2347; first compound 500 µM) was 0.171, the relative viability (NCI-H23; first compound 5 µM) was 0.478 and the relative viability (NCI-H23; first compound 15.81 µM) was 0.455. It also gave a relative viability (NCI-H23; first compound 50 µM) of 0.457, a relative viability (NCI-H23; first compound 158.11 µM) of 0.153 and a relative viability (NCI-H23; first compound 500 µM) of 0.009. For the same compound, the relative viability (NCI-H322M; first compound 5 µM) was 0.511, the relative viability (NCI-H322M; first compound 15.81 µM) was 0.426 and the relative viability (NCI-H322M; first compound 50 µM) was 0.496. It also gave a relative viability (NCI-H322M; first compound 158.11 µM) of 0.469, a relative viability (NCI-H322M; first compound 500 µM) of 0.53 and a relative viability (NCI-H520; first compound 5 µM) of 0.271. For the same compound, the relative viability (NCI-H520; first compound 15.81 µM) was 0.279, the relative viability (NCI-H520; first compound 50 µM) was 0.286 and the relative viability (NCI-H520; first compound 158.11 µM) was 0.172. It also gave a relative viability (NCI-H520; first compound 500 µM) of 0.134, a relative viability (NCI-H647; first compound 5 µM) of 0.58 and a relative viability (NCI-H647; first compound 15.81 µM) of 0.315. It also gave a relative viability (NCI-H647; first compound 50 µM) of 0.384, a relative viability (NCI-H647; first compound 158.11 µM) of 0.424 and a relative viability (NCI-H647; first compound 500 µM) of 0.412. The relative viability (NCI-H661; first compound 5 µM) was 0.36, the relative viability (NCI-H661; first compound 15.81 µM) was 0.428 and the relative viability (NCI-H661; first compound 50 µM) was 0.442. For the same compound, the relative viability (NCI-H661; first compound 158.11 µM) was 0.355, the relative viability (NCI-H661; first compound 500 µM) was 0.367 and the relative viability (NCI-H838; first compound 5 µM) was 0.483. For the same compound, the relative viability (NCI-H838; first compound 15.81 µM) was 0.289, the relative viability (NCI-H838; first compound 50 µM) was 0.392 and the relative viability (NCI-H838; first compound 158.11 µM) was 0.299. It also gave a relative viability (NCI-H838; first compound 500 µM) of 0.0565.

Reference: the supplement of paper PMC10307832
